Among the test systems are NCI-H522; MDA-MB-435; SN12C; MCF7; CAKI-1; PC-3; OVCAR-8; SF-539; SK-MEL-5; T47D; HCC 2998; DU-145; HOP-92; NCI-H460; RXF 393; SK-MEL-28; EKVX; HL-60; HOP-62; SF-268.
Common to all, as to assay: NCI anticancer screen, dose series, 48 h

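Briefly, cells in 96-well plates were exposed to five compound concentrations for 48 h, and endpoints were estimated by linear interpolation. GI50 marks 50% less growth.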 The source made the active and inactive calls. No stated cut-off is given here; in the data, active = GI50 up to about 1.1 µM and inactive = higher.

Regarding `CCOC(=O)c1cccc(NC(=O)CI)c1`, the GI50 was 0.179 µM (active) in the assay on NCI-H522; 0.263 µM (active) with MDA-MB-435; 0.29 µM (active) in the assay with SN12C; 0.394 µM (active) with MCF7; 0.55 µM (active) with CAKI-1; 1.14 µM (inactive) in the assay on PC-3. In addition, the GI50 with OVCAR-8 was 0.264 µM (active); in the assay on SF-539, 0.65 µM (active); with SK-MEL-5, 0.507 µM (active); with T47D, 1.39 µM (inactive); in the assay with HCC 2998 it was 2.24 µM (inactive); in the assay on DU-145, 1.76 µM (inactive). The GI50 in the assay on HOP-92 is 1.07 µM (active); in the assay with NCI-H460 it was 1.2 µM (inactive); in the assay with RXF 393, 1.36 µM (inactive); in the assay with SK-MEL-28, 2.2 µM (inactive); with EKVX it was 1.93 µM (inactive); in the assay on HL-60, 0.653 µM (active). Moreover, the GI50 in the assay with HOP-62 was 1.36 µM (inactive); in the assay with SF-268 it was 0.67 µM (active).
Take `COc1ccc([C@H]2C=C(c3cc(F)c(Cl)cc3Cl)NC(=S)N2)cc1`: the GI50 in the assay on NCI-H522 is 31.8 µM (inactive); in the assay with MDA-MB-435, 12.8 µM (inactive); in the assay on SN12C it was 21.3 µM (inactive); in the assay on MCF7, 32.6 µM (inactive); in the assay with CAKI-1, 29.4 µM (inactive); with PC-3, 19.9 µM (inactive). The GI50 in the assay on OVCAR-8 was 40.3 µM (inactive); in the assay with SF-539 it was 42.4 µM (inactive); with SK-MEL-5, 11.9 µM (inactive); in the assay with T47D it was 18.7 µM (inactive); with HCC 2998, 23.9 µM (inactive); in the assay on DU-145, 39.9 µM (inactive). The GI50 with HOP-92 is 24 µM (inactive); in the assay on NCI-H460, 20.1 µM (inactive); in the assay with RXF 393, 18.8 µM (inactive); in the assay with SK-MEL-28 it was 47 µM (inactive); in the assay on EKVX, 28 µM (inactive); with HL-60, 11.3 µM (inactive). In addition, the GI50 with HOP-62 is 38.6 µM (inactive); in the assay on SF-268, 48.5 µM (inactive).
For `NC1=NCC(CN2CCOCC2)O1` (stereo not given), the GI50 in the assay on NCI-H522, in the assay with MDA-MB-435, in the assay with SN12C, with MCF7, in the assay on CAKI-1 and in the assay on PC-3 was > 100 µM (inactive) in each case. Also, the GI50 in the assay with OVCAR-8, with SF-539, in the assay on SK-MEL-5, in the assay with T47D, with HCC 2998 and with DU-145 was > 100 µM (inactive) each time. For the same molecule, the GI50 in the assay on HOP-92, in the assay with NCI-H460, in the assay with RXF 393, in the assay with SK-MEL-28, with EKVX and in the assay on HL-60 was > 100 µM (inactive) throughout. The GI50 in the assay with HOP-62 and with SF-268 was > 100 µM (inactive) in each case.
As for `COC(=O)/C=C1\C(=O)N(C(C)=O)c2ccc(Br)cc21`, the GI50 was 3.73 µM (inactive) in the assay on NCI-H522; 9.35 µM (inactive) with MDA-MB-435; 5.71 µM (inactive) with SN12C; 4.5 µM (inactive) in the assay with MCF7; 21.3 µM (inactive) in the assay on CAKI-1; 8.75 µM (inactive) in the assay with PC-3. The GI50 is 8.43 µM (inactive) in the assay with OVCAR-8; 4.67 µM (inactive) in the assay with SF-539; 9.68 µM (inactive) in the assay on SK-MEL-5; 5.02 µM (inactive) in the assay on T47D; 17.7 µM (inactive) with HCC 2998; 12.8 µM (inactive) in the assay on DU-145. For the same molecule, the GI50 is 13.6 µM (inactive) in the assay with HOP-92; 14.6 µM (inactive) in the assay on NCI-H460; 7.46 µM (inactive) with RXF 393; 14.5 µM (inactive) in the assay with SK-MEL-28; 15.2 µM (inactive) in the assay with EKVX; 2.23 µM (inactive) in the assay on HL-60. Also, the GI50 in the assay on HOP-62 was 13.2 µM (inactive); in the assay on SF-268, 7.46 µM (inactive).
`O=C1C[C@H](COCc2ccccc2)NC(=O)C[C@H](COCc2ccccc2)NC(=O)C[C@H](COCc2ccccc2)N1`: the GI50 with NCI-H522, in the assay on MDA-MB-435, with SN12C, in the assay with MCF7, in the assay with CAKI-1 and in the assay with PC-3 was > 100 µM (inactive) throughout. Also, the GI50 in the assay on OVCAR-8 is > 100 µM (inactive); with SF-539, 15.3 µM (inactive); in the assay on SK-MEL-5, > 100 µM (inactive); in the assay on T47D, 62.2 µM (inactive); in the assay with HCC 2998, > 100 µM (inactive); in the assay with DU-145, > 100 µM (inactive). Also, the GI50 with HOP-92 is 12.2 µM (inactive); in the assay on NCI-H460, > 100 µM (inactive); with RXF 393 it was 11.5 µM (inactive); with SK-MEL-28, > 100 µM (inactive); with EKVX it was > 100 µM (inactive); in the assay with HL-60, 92.7 µM (inactive). In addition, the GI50 in the assay on HOP-62 was 17.9 µM (inactive); with SF-268 it was 40.9 µM (inactive).
Turning to `Cn1cnc([N+](=O)[O-])c1Sc1nnc(-c2cccnc2)n1C`, the GI50 was 5.78 µM (inactive) with NCI-H522; 14.9 µM (inactive) with MDA-MB-435; 25.4 µM (inactive) in the assay with SN12C; 23.8 µM (inactive) in the assay with MCF7; 25.4 µM (inactive) in the assay with CAKI-1; 25 µM (inactive) in the assay on PC-3. In addition, the GI50 was 21.3 µM (inactive) in the assay with OVCAR-8; 22.2 µM (inactive) in the assay with SF-539; 16.9 µM (inactive) in the assay with SK-MEL-5; 12.6 µM (inactive) in the assay on T47D; 30.9 µM (inactive) in the assay with HCC 2998; 36.4 µM (inactive) in the assay on DU-145. Moreover, the GI50 is 14.5 µM (inactive) with HOP-92; > 85.1 µM (inactive) in the assay on NCI-H460; 7.83 µM (inactive) in the assay with RXF 393; 17.5 µM (inactive) in the assay with SK-MEL-28; 38.2 µM (inactive) in the assay with EKVX; 6.55 µM (inactive) in the assay with HL-60. The GI50 in the assay on HOP-62 is > 91.6 µM (inactive); in the assay with SF-268 it was 36.2 µM (inactive).
In the case of `O=C1N/C(=N\N=C\c2ccccc2)C2(CCCCC2)O1`, the GI50 in the assay with NCI-H522 was > 100 µM (inactive); in the assay with MDA-MB-435 it was > 100 µM (inactive); in the assay with SN12C, 95.3 µM (inactive); with MCF7, > 100 µM (inactive); with CAKI-1, 84.9 µM (inactive); in the assay with PC-3, 80.4 µM (inactive). Further, the GI50 in the assay with OVCAR-8 was 99.5 µM (inactive); with SF-539, > 100 µM (inactive); with SK-MEL-5 it was 55.8 µM (inactive); in the assay on T47D, > 100 µM (inactive); in the assay on HCC 2998, 87.3 µM (inactive); with DU-145 it was > 100 µM (inactive). Further, the GI50 was > 100 µM (inactive) in the assay with HOP-92; 45 µM (inactive) in the assay with NCI-H460; > 100 µM (inactive) in the assay with RXF 393; > 100 µM (inactive) with SK-MEL-28; > 100 µM (inactive) in the assay on EKVX; 32.9 µM (inactive) in the assay on HL-60. Moreover, the GI50 is 83.4 µM (inactive) with HOP-62 and > 100 µM (inactive) in the assay on SF-268.
Take `CCC(=O)OCOc1ccc(/C=C2\CCC(CN(C)C)C2=O)cc1` (stereo not given): the GI50 was 1.93 µM (inactive) in the assay with NCI-H522; 3.34 µM (inactive) with MDA-MB-435; 2.72 µM (inactive) with SN12C; 3.03 µM (inactive) with MCF7; 4.67 µM (inactive) in the assay with CAKI-1; 14.2 µM (inactive) in the assay with PC-3. In addition, the GI50 in the assay on OVCAR-8 was 4.19 µM (inactive); in the assay on SF-539, 8.41 µM (inactive); with SK-MEL-5 it was 11.7 µM (inactive); with T47D, 3.52 µM (inactive); in the assay with HCC 2998 it was 5.96 µM (inactive); with DU-145, 10.8 µM (inactive). Besides, the GI50 with HOP-92 is 11 µM (inactive); in the assay with NCI-H460, 15.9 µM (inactive); in the assay on RXF 393, 3.44 µM (inactive); in the assay with SK-MEL-28 it was 4.29 µM (inactive); in the assay with EKVX, 14 µM (inactive); in the assay on HL-60, 1.36 µM (inactive). In addition, the GI50 with HOP-62 was 15.2 µM (inactive); in the assay on SF-268, 8.59 µM (inactive).
Regarding `COc1ccc(NC(=O)CC(=O)N2N=C(c3ccccc3)C(/N=N/c3ccc(S(=O)(=O)CCOS(=O)(=O)O)cc3)C2=O)cc1` (stereo not given), the GI50 with NCI-H522, in the assay on MDA-MB-435, with SN12C, in the assay with MCF7, in the assay on CAKI-1 and with PC-3 was > 100 µM (inactive) throughout. In addition, the GI50 in the assay with OVCAR-8, with SF-539, with SK-MEL-5, with T47D, in the assay on HCC 2998 and in the assay on DU-145 was > 100 µM (inactive) each time. Besides, the GI50 in the assay on HOP-92, in the assay on NCI-H460, in the assay with RXF 393, in the assay with SK-MEL-28, with EKVX and in the assay with HL-60 was > 100 µM (inactive) throughout. The GI50 with HOP-62 and in the assay on SF-268 was > 100 µM (inactive) throughout.
For the molecule `CC(C)=CCC[C@](C)(O[C@@H]1O[C@H](CO)[C@@H](O)[C@H](O)[C@H]1O)[C@H]1CC[C@]2(C)[C@@H]1[C@H](O)C[C@@H]1[C@@]3(C)CC[C@H](O)C(C)(C)[C@@H]3[C@@H](O[C@@H]3O[C@H](CO)[C@@H](O)[C@H](O)[C@H]3O)C[C@]12C` [GINSENOSIDE RG1], the GI50 in the assay with NCI-H522, with MDA-MB-435, in the assay on SN12C, in the assay with MCF7, in the assay with CAKI-1 and in the assay with PC-3 was > 100 µM (inactive) in each case. Further, the GI50 in the assay on OVCAR-8, with SF-539, in the assay on SK-MEL-5, in the assay with T47D, in the assay with HCC 2998 and with DU-145 was > 100 µM (inactive) throughout. Further, the GI50 in the assay on HOP-92, in the assay with NCI-H460, in the assay with RXF 393, in the assay on SK-MEL-28, in the assay on EKVX and with HL-60 was > 100 µM (inactive) throughout. Besides, the GI50 in the assay on HOP-62 and in the assay on SF-268 was > 100 µM (inactive) in each case.

For the origin of these results see ChEMBL document CHEMBL1201862, “PubChem BioAssay data set” (2004).
